{"source": "patent US8337828B2", "about": "“Use of thymosin alpha 1, alone or in combination with PTX3 or ganciclovir, for the treatment of cytomegalovirus infection” (priority 2006, dated 2012)", "key": {"[1]": {"tested_on": "MCMV", "assay": "MCMV infection in mice, virus titers by standard plaque assay on tissues", "type": "in vivo, BALB/c and C57BL6 mice", "protocol": "BALB/c (FIG. 1a) and C57BL6 (FIG. 1b) mice were infected with 1×10^5 or 5×10^5 PFU of MCMV, respectively. Virus titers were quantified on MEF cells by standard plaque assay on tissues removed at different times (FIG. 1a) or a week after infection (FIG. 1b) and expressed as log 10(mean±standard errors, SE). Thymosin alpha 1 (200 μg/kg given for 7 or 14 days) and GCV (40 mg/kg given three times a week) were administered beginning the day of the infection. Controls received the scrambled peptide. Results are representative of 4 independent experiments. Bars indicate the standard errors. *P<0.05, viral load between treated and untreated mice.\nBALB/c or C57BL6 mice were infected with 10^5 or 5×10^5 PFU of MCMV, respectively. Virus titers, expressed as log 10, were quantified on MEF cells by standard plaque assay on lung tissues removed 7 days after the infection. Tα1 (200 μg/kg/daily for a week) and/or GCV (40 mg/kg, three times a week) were administered beginning the day of the infection. Cytokine (pg/ml) levels in culture supernatants of spleen cells (7 days) were determined by ELISA assay. Bars indicate the standard errors. *P<0.05, treated vs untreated mice. Results are representative of 3 independent experiments.\nInbred C57BL6 and BALB/c mice were injected intraperitoneally (i.p.) with 1×10^5 (BALB/c) or 5×10^5 (C57BL6) plaque forming units (PFU) of MCMV. Virus titers were quantified on MEF cells by standard plaque assay on tissues removed a day after treatment. Treatments were as follow: Tα1 ([…]) and PTX3 (1 mg/k/ip) (SIGMA-Tau, Pomezia, Rome, Italy) were given daily for 7 consecutive days beginning the day of the infection. Controls received the scrambled peptide. All organs from uninfected animals were negative viruses. Virus titers are expressed as log 10 (mean±standard errors, SE).\nMice. Wild-type (WT) inbred C57BL6 and BALB/c mice, 8 to 12 weeks old, were purchased from Charles River Breeding Laboratories (Calco, Italy). Pairs of homozygous TLR9-(TLR9−/−), TLR4-(TLR4−/−), and MyD88-(MyD88−/−)-deficient mice (on the C57BL6 background), were bred under specific pathogen-free conditions at the breeding facilities of the University of Perugia, Perugia, Italy. Experiments were performed following protocols approved by the institutional animal committee and in accordance with European Economic Community Council Directive as well as institutional animal care and use guidelines.\nVirus, infection and treatments. Stocks of Smith strain MCMV salivary gland extracts were prepared from BALB/c mice and titered in a standard plaque assay on BALB/c murine embryonic fibroblast (MEF) cells (J. Gen. Virol. 2002; 83:2983-2993). Mice were injected intraperitoneally (i.p.) with 1×10^5 (C57BL6) plaque forming units (PFU) of MCMV. Virus titers were quantified on MEF cells by standard plaque assay on tissues removed at different times. Treatments were as follows: Thymosin alpha 1 and the scrambled polypeptide (both from SciClone Pharmaceuticals, San Mateo, CA) were supplied as purified (the endotoxin levels were <0.03 pg/ml, by a standard limulus lysate assay) sterile, lyophilized, acetylated polypeptide. The sequences were as follows: Ac-Ser-Asp-Ala-Ala-Val-Asp-Thr-Ser-Ser-Glu -Ile-Thr-Thr-Lys-Asp-Leu-Lys-Glu-Lys-Lys-Glu-Val-Glu-Glu-Ala-Glu-Asn-O (Tα1) SEQ ID NO:1 and Ac-Ala-Lys-Ser-Asp-Val-Lys-Ala-Glu-Thr-Ser-Ser-Glu-Ile-Asp-Thr-Thr-Glu-Leu -Asp-Glu-Lys-Val-Glu-Val-Lys-Ala-Asn-Glu-OH (scrambled peptide) SEQ ID NO:2. The lyophilized powders were reconstituted in sterile water and 200 μg/kg/i.p. were given daily for 7 or 14 consecutive days beginning the day of the infection. Gancyclovir (GCV) (Cymevene; from Recordati, Milan, Italy) was administered at 40 mg/kg/i.p. three times a week, every other day, beginning 6 h after infection. Controls received the scrambled peptide or the diluent alone.\nPlaque assay. Plaque assay was determined on cells grown to subconfluence and incubated with serially diluted virus samples for 2 h at 37° C. (10). […]"}, "[2]": {"tested_on": "human non-small cell lung cancer (\"NSCLC\") cells", "details": "subcutaneous administration; cited from earlier work"}, "[3]": {"tested_on": "NK cells", "type": "in vivo, BALB/c mice", "details": "200 μg/kg for a week", "protocol": "Phenotypic analysis of total (FIG. 2a, FIG. 2b) or NK (FIG. 2c) cells from spleen of MCMV-infected BALB/c mice untreated (−) or treated (+) with 200 μg/kg Thymosin alpha 1 for a week; None represents uninfected mice. Numbers refer to the percentage of positive cells on FACS analysis, a week after the infection. Histograms are representative of 1 out of 4 independent experiments. (FIG. 2d) Cytotoxic activity (by standard 51Cr-release assay against YAC-1 targets) and frequency of IFN-.-producing NK cells by ELISPOT assay from mice treated as above. Bars indicate the standard errors. *P<0.05, infected vs uninfected mice. **P<0.05, Thymosin alpha 1-treated vs untreated infected mice. The results shown are from 5 independent experiments. Flow cytometry analyses. After blocking of FcRs with the anti-CD16/32 (2.4G2) antibody, cells were analyzed for antigen expression with a FACScan flow cytofluorometer (Becton Dickinson, Mountain View, Calif.) equipped with CELLQuest™ software. Control staining of cells with irrelevant Ab was used to obtain background fluorescence values. Abs were from PharMingen. NK cell cytotoxic activity. NK cells, purified from spleens by DX5 microbeads (Miltenyi Biotec), were defined as NK1.1+CD3-cells. NK cytolytic activity was assessed against 51 Cr-labeled YAC-1 lymphoma cells (Blood 2005; 106:4397-4406). Quantification of cytokines by ELISA and ELISPOT assays. The levels of cytokines in the culture supernatants of mitogen-stimulated spleen cells (48 h stimulation with 10 μg/ml ConA) or MCMV-pulsed DC (24 h) were determined by ELISA (R&D Systems and PBL, Biomedical Lab, Milan, Italy). The detection limits (pg/ml) of the assays were <16 for IL-12 p70, <10 for IFN-., <3 for IL-10 and <10 for IFN-a. IFN-.-producing NK cells were enumerated by ELISPOT assay on purified NK (Virus Res. 2003; 98:17-467 25). Results are expressed as the mean number of cytokine-producing cells (±SE) per 10^5 cells, calculated using replicates of serial 2-fold dilutions of cells."}, "[4]": {"details": "spleen, MCMV-infected BALB/c mice"}}, "note": "Ends that are not written are not given here."}
{"substance": "Ac-Ser-Asp-Ala-Ala-Val-Asp-Thr-Ser-Ser-Glu -Ile-Thr-Thr-Lys-Asp-Leu-Lys-Glu-Lys-Lys-Glu-Val-Glu-Glu-Ala-Glu-Asn-O (Ac-SDAAVDTSSEITTKDLKEKKEVEEAEN) [Thymosin alpha 1, acidic peptide present in thymus extract with immunoregulatory properties]", "values": [{"measurement": "viral load in different visceral organs", "setting": "[1]; 200 μg/kg for 7 days, both susceptible (BALB/c) and resistant (C57BL6) mice", "result": "significantly decreased the viral load"}, {"measurement": "viral load", "setting": "[1]; BALB/c mice infected with a higher PFU (data not shown)", "result": "significantly decreased the viral load"}, {"measurement": "viral load in visceral organs", "setting": "[1]; Thymosin alpha 1 given for 14 days, compared with 7 days", "result": "higher"}, {"measurement": "viral titers in the lung", "setting": "[1]; Tα1 alone, 200 μg/kg/ip daily for 7 days, BALB/c or C57BL6 mice", "result": "decreased the viral titers"}, {"measurement": "viral load in salivary gland and liver", "setting": "[1]; resistant (C57BL6) mice, a week after infection", "result": "particularly evident"}, {"measurement": "tumor volume", "setting": "[2]", "result": "significantly decreased tumor volume"}, {"measurement": "frequency of IFN-.-producing cells (ELISPOT)", "setting": "[3]; ex-vivo purified splenic NK cells", "result": "significantly up-regulated"}, {"measurement": "expansion of CD4+ or CD8+ T cells", "setting": "[3]; [4]", "result": "not affecting the expansion"}, {"measurement": "expansion of NK1.1+ NK cells", "setting": "[3]; [4]", "result": "expanded"}, {"measurement": "expression of the activation marker CD69 on NK cells", "setting": "[3]; [4]", "result": "increased expression"}]}
